Measurements reported in patent publication US11207420B2, “Cytotoxin and conjugate, uses of same and preparation method therefor” (priority 2017, dated 2021).
pEC50: −log10 of the molar value. Square brackets hold non-standard residues; d marks the D form. Peptide text beside a SMILES is read from it. * marks the point of attachment. ξ: configuration not given here. Dolaproine = CO[C@@H]([C@@H]1CCCN1)[C@@H](C)C(=O)O; Dil = CC[C@H](C)[C@H](NC)[C@@H](CC(=O)O)OC; d(β3hF) = N[C@@H](CC(=O)O)Cc1ccccc1; NH(4-aminobenzyl) = Nc1ccc(CN*)cc1; NMe2Val = CC(C)[C@@H](C(=O)*)N(C)C; β3hF = N[C@H](CC(=O)O)Cc1ccccc1; NMeV = CN[C@H](C(=O)O)C(C)C; ξF = NC(Cc1ccccc1)C(=O)O; X1 = CN(Cc1ccc(N)cc1)*

Tests used:
MDA-MB-468 = assay: Inhibitory effect of small molecule toxins on cell proliferation in vitro (CCK8); format: cell-based; conditions: MDA-MB-468, 7500 cells/well, 4 days
Procedure: (§1) First, tumor cells MDA-MB-468 and NCI-H322M were cultured; the small molecule toxins of the present invention, maytansin derivative (DM1, Nanjing Lianning), monomethyl auristatin F (MMAF, Nanjing Lianning) were co-cultured respectively with the tumor cells. Then, CCK8 reagent (Dongren Chemical Technology Co., Ltd.) was added, followed by detection with the microplate reader (manufacturer: Molecular Devices, model: SpectraMax M2) (wavelength: 450 nm). The activity of dehydrogenase in mitochondria was detected, to evaluate the inhibitory effect of small molecule toxins on cell proliferation.
(§2) Test of cell activity in vitro: toxins were diluted (10 concentration gradients) with the corresponding test medium (containing 2% FBS). Tumor cells were trypsinized by a conventional method using trypsin, and cells were collected by tube and resuspended in the corresponding test medium (containing 2% FBS). The diluted toxins were added to a 96-well plate, to which were added the cells. Thereafter, 20 μL of CCK8 reagent was added to each well, and reaction was carried out for 4 hours, followed by detection with the microplate reader (wavelength: 450 nm).

NCI-H322M = assay: as above; format: cell-based; conditions: 5000 cells/well, 3 days, starting at 20000 nM, 5-fold dilution
Procedure: as §1, §2

[1] = Homo sapiens, MDA-MB-468, 96 h, Table 3, starting at 10 nM, 2-fold dilution
[2] = Table 2, 3-fold dilution starting at 10000 nM (T001: 500 nM)

`CC[C@H](C)[C@@H]([C@@H](CC(=O)N1CCC[C@H]1[C@H](OC)[C@@H](C)C(=O)NCC(=O)NCc1ccc(N)cc1)OC)N(C)C(=O)[C@@H](NC(=O)[C@H](C(C)C)N(C)C)C(C)C` [Example T015, (S)—N-((3R,4S,5 S)-1-((S)-2-((1R,2R)-3-((2-((4-aminobenzyl)amino)-2-oxoethyl)amino)-1-methoxy-2-methyl-3-oxopropyl)pyrrolidin-1-yl)-3-methoxy-5-methyl-1-oxoheptyl-4-yl)-2-((S)-2-(dimethylamino)-3-methylbutyramido)-N,3-dimethylbutyramide] (NMe2Val-V[Dil][Dolaproine]G-{NH(4-aminobenzyl)}) was tested, and the pEC50 (MDA-MB-468; [1]) was 8.13.
`CC[C@H](C)[C@@H]([C@@H](CC(=O)N1CCC[C@H]1[C@H](OC)[C@@H](C)C(=O)N[C@@H](Cc1ccccc1)C(=O)N(C)Cc1ccc(N)cc1)OC)N(C)C(=O)[C@@H](NC(=O)[C@H](C(C)C)N(C)C)C(C)C` [Example T003, (S)—N-((3R,4S,5 S)-1-((S)-2-((1R,2R)-3-(((S)-1-((4-aminobenzyl)(methyl)amino)-1-oxo-3-phenylprop-2-yl)amino)-1-methoxy-2-methyl-3-propionyl)pyrrolidin-1-yl)-3-methoxy-5-methyl-1-heptanoyl-4-yl)-2-((S)-2-(dimethylamino)-3-methylbutyramido)-N,3-dimethylbutyramide] (NMe2Val-V[Dil][Dolaproine]F-X1) showed a pEC50 (MDA-MB-468; [1]) of 8.49.
With `CC[C@H](C)[C@@H]([C@@H](CC(=O)N1CCC[C@H]1[C@H](OC)[C@@H](C)C(=O)N[C@@H](CC(C)C)C(=O)NCc1ccc(N)cc1)OC)N(C)C(=O)[C@@H](NC(=O)[C@H](C(C)C)N(C)C)C(C)C` [Example T018] (NMe2Val-V[Dil][Dolaproine]L-{NH(4-aminobenzyl)}) the pEC50 (MDA-MB-468; [1]) was 8.63.
With `CC[C@H](C)[C@@H]([C@@H](CC(=O)N1CCC[C@H]1[C@H](OC)[C@@H](C)C(=O)NC(Cc1ccccc1)C(=O)NCc1ccc(N)cc1)OC)N(C)C(=O)[C@@H](NC(=O)[C@H](C(C)C)N(C)C)C(C)C` (stereo partly drawn) [Example T001, (2S)—N-((3R,4S,5 S)-1-((2S)-2-((1R,2R)-3-((1-((4-aminobenzyl)amino)-1-oxo-3-phenylprop-2-yl)amino)-1-methoxy-2-methyl-3-propionyl)pyrrolidin-1-yl)-3-methoxy-5-methyl-1-heptanoyl-4-yl)-2-((S)-2-(dimethylamino)-3-methylbutyramido)-N,3-dimethylbutyramide] (NMe2Val-V[Dil][Dolaproine][ξF]-{NH(4-aminobenzyl)}) the pEC50 (MDA-MB-468; Homo sapiens, MDA-MB-468, 96 h, Table 2, 3-fold dilution starting at 10000 nM (T001: 500 nM)) was 9.27, the pEC50 (MDA-MB-468; [1]) was 8.95 and the pEC50 (NCI-H322M; Homo sapiens, 72 h) was 8.70.
`CC[C@H](C)[C@@H]([C@@H](CC(=O)N1CCC[C@H]1[C@H](OC)[C@@H](C)C(=O)N[C@H](CC(=O)NCc1ccc(N)cc1)Cc1ccccc1)OC)N(C)C(=O)[C@@H](NC(=O)[C@H](C(C)C)N(C)C)C(C)C` [Example T013, (S)—N-((3R,4S,5 S)-1-((S)-2-((1R,2R)-3-(((S)-4-((4-aminobenzyl)amino)-4-oxo-1-phenylbut-2-yl)amino)-1-methoxy-2-methyl-3-oxopropyl)pyrrolidin-1-yl)-3-methoxy-5-methyl-1-oxoheptyl-4-yl)-2-((S)-2-(dimethylamino)-3-methylbutyramido)-N,3-dimethylbutyramide] (NMe2Val-V[Dil][Dolaproine][β3hF]-{NH(4-aminobenzyl)}) gave a pEC50 (MDA-MB-468; [1]) of 9.38.
For `CC[C@H](C)[C@@H]([C@@H](CC(=O)N1CCC[C@H]1[C@H](OC)[C@@H](C)C(=O)N[C@@H](Cc1ccccc1)C(=O)NCc1ccc(N)cc1)OC)N(C)C(=O)[C@@H](NC(=O)[C@H](C(C)C)N(C)C)C(C)C` [Example T011] (NMe2Val-V[Dil][Dolaproine]F-{NH(4-aminobenzyl)}), the pEC50 (MDA-MB-468; [1]) was 9.68.
`CC[C@H](C)[C@@H]([C@@H](CC(=O)N1CCC[C@H]1[C@H](OC)[C@@H](C)C(=O)N[C@H](Cc1ccccc1)C(=O)NCc1ccc(N)cc1)OC)N(C)C(=O)[C@@H](NC(=O)[C@H](C(C)C)N(C)C)C(C)C` [Example T012] (NMe2Val-V[Dil][Dolaproine][dF]-{NH(4-aminobenzyl)}) showed a pEC50 (MDA-MB-468; [1]) of 8.79.
Work on `CC[C@H](C)[C@@H]([C@@H](CC(=O)N1CCC[C@H]1[C@H](OC)[C@@H](C)C(=O)N[C@@H](CC(=O)NCc1ccc(N)cc1)Cc1ccccc1)OC)N(C)C(=O)[C@@H](NC(=O)[C@H](C(C)C)N(C)C)C(C)C` [Example T014, (S)—N-((3R,4S,5 S)-1-((S)-2-((1R,2R)-3-(((R)-4-((4-aminobenzyl)amino)-4-oxo-1-phenylbut-2-yl)amino)-1-methoxy-2-methyl-3-oxopropyl)pyrrolidin-1-yl)-3-methoxy-5-methyl-1-oxoheptyl-4-yl)-2-((S)-2-(dimethylamino)-3-methylbutyramido)-N,3-dimethylbutyramide] (NMe2Val-V[Dil][Dolaproine][d(β3hF)]-{NH(4-aminobenzyl)}) yielded a pEC50 (MDA-MB-468; [1]) of 8.91.
In the case of `COc1cc2cc(c1Cl)N(C)C(=O)C[C@H](OC(=O)[C@H](C)N(C)C(=O)CCS)[C@]1(C)O[C@H]1[C@H](C)[C@@H]1C[C@@](O)(NC(=O)O1)[C@H](OC)/C=C/C=C(\C)C2` [maytansin derivative (DM1), reference compound], the pEC50 (MDA-MB-468; [2]) was 8.12 and the pEC50 (NCI-H322M) was 7.41.
`CC[C@H](C)[C@@H]([C@@H](CC(=O)N1CCC[C@H]1[C@H](OC)[C@@H](C)C(=O)N[C@@H](Cc1ccccc1)C(=O)O)OC)N(C)C(=O)[C@@H](NC(=O)[C@@H](NC)C(C)C)C(C)C` [monomethyl auristatin F (MMAF), monomethyl auristatin F, reference compound] (H-[NMeV]V[Dil][Dolaproine]F-OH) showed a pEC50 (MDA-MB-468; [2]) of 7.01 and a pEC50 (NCI-H322M) of 6.93.
For `CC[C@H](C)[C@@H]([C@@H](CC(=O)N1CCC[C@H]1[C@H](OC)[C@@H](C)C(=O)N[C@H](C(=O)NCc1ccc(N)cc1)C(C)C)OC)N(C)C(=O)[C@@H](NC(=O)[C@H](C(C)C)N(C)C)C(C)C` [Example T019] (NMe2Val-V[Dil][Dolaproine]V-{NH(4-aminobenzyl)}), the pEC50 (MDA-MB-468; [1]) was 8.94.
Work on `CC[C@H](C)[C@@H]([C@@H](CC(=O)N1CCC[C@H]1[C@H](OC)[C@@H](C)C(=O)N[C@H](Cc1ccccc1)C(=O)N(C)Cc1ccc(N)cc1)OC)N(C)C(=O)[C@@H](NC(=O)[C@H](C(C)C)N(C)C)C(C)C` [Example T002, (S)—N-((3R,4 S,5 S)-1-((S)-2-((1R,2R)-3-(((R)-1-((4-aminobenzyl)(methyl)amino)-1-oxo-3-phenylprop-2-yl)amino)-1-methoxy-2-methyl-3-propionyl)pyrrolidin-1-yl)-3-methoxy-5-methyl-1-heptanoyl-4-yl)-2-((S)-2-(dimethylamino)-3-methylbutyramido)-N,3-dimethylbutyramide] (NMe2Val-V[Dil][Dolaproine][dF]-X1) yielded a pEC50 (MDA-MB-468; [1]) of less than 8.00.
`CC[C@H](C)[C@@H]([C@@H](CC(=O)N1CCC[C@H]1[C@H](OC)[C@@H](C)C(=O)N[C@@H](C)C(=O)NCc1ccc(N)cc1)OC)N(C)C(=O)[C@@H](NC(=O)[C@H](C(C)C)N(C)C)C(C)C` [Example T016] (NMe2Val-V[Dil][Dolaproine]A-{NH(4-aminobenzyl)}) gave a pEC50 (MDA-MB-468; [1]) of 8.24.
